In US20250214977A1, “STAT6 INHIBITORS AND USES THEREOF” (Kymera Therapeutics, Inc., priority 2024, published 2025):

System: Phosphorylation of STAT6 in human PBMC (CD19+ B cells)
Experiment: Phosphorylated STAT6 (pSTAT6) flow cytometry assay in human PBMC, IL-4 stimulated
Type: cell-based
Conditions: compound 1 hour, 1 ng/ml IL-4 for 15 minutes, read-out: STAT6 IL4 pSTAT6 assay in PBMC: Average IC50
Outline: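 Human PBMC preincubated 1 h at 37 °C with compound (9-point 1:3 series, top up to 30 μM), then stimulated with 1 ng/ml IL-4 for 15 min. After fixation, methanol permeabilization and staining, pSTAT6 quantified in CD19+ B cells by flow cytometry; four-parameter fit of inhibition.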

## CC(=O)NC(Cn1ccnn1)C(=O)N1CCC=C(c2ccc3oc(C(=O)N(C)C)cc3c2)C1 (stereo not shown) [Example I-179]
  IC50: > 100 µM

## CC(=O)N1CCC(c2cccc3c2CC(C(=O)N2CCC=C(c4ccc5oc(C(=O)N(C)C)cc5c4)C2)N(C=O)C3)CC1 (stereo not shown) [Example I-180]
  IC50: > 100 µM

## CN(C)C(=O)c1cc2cc(C3=CCCN(C(=O)C4Cc5c(cccc5C5CCNCC5)CN4C=O)C3)ccc2o1 (stereo not shown) [Example I-181]
  IC50: > 100 µM

## CC(=O)N1Cc2ccccc2CC1C(=O)N1CCC=C(c2ccc3oc(C(=O)N(C)C)cc3c2)C1 (stereo not shown) [Example I-182]
  IC50: > 100 µM

## COC(=O)CCC#Cc1cc(C2=CCCN(C(=O)C3Cc4ccccc4CN3C=O)C2)cc2cc(C(=O)N(C)C)oc12 (stereo not shown) [Example I-184]
  IC50: 10 to 100 µM

## CN(C)C(=O)c1cc2cc(C3=CCCN(C(=O)CCn4ccnn4)C3)cc(CN3CCCCC3)c2o1 [Example I-185]
  IC50: 10 to 100 µM

## COC(=O)c1cnn(-c2cc(C3=CCCN(C(=O)CCn4ccnn4)C3)cc3cc(C(=O)N(C)C)oc23)c1 [Example I-186]
  IC50: > 100 µM

## CN(C)C(=O)c1cc2cc(C3=CCCN(C(=O)C4Cc5c(cccc5-c5ccc(O)cc5)CN4C=O)C3)ccc2o1 (stereo not shown) [Example I-187]
  IC50: > 100 µM

## CCC(=O)N1Cc2ccccc2CC1C(=O)N1CCC=C(c2ccc3oc(C(=O)N(C)C)cc3c2)C1 (stereo not shown) [Example I-188]
  IC50: > 100 µM

## CCC(=O)N1Cc2ccccc2CC1C(=O)N1CCC=C(c2ccc3oc(C(=O)N(C)C)cc3c2)C1 (stereo not shown) [Example I-189]
  IC50: > 100 µM

## CC(=O)N1CCC(c2cc(C3=CCCN(C(=O)CCn4ccnn4)C3)cc3cc(C(=O)N(C)C)oc23)CC1 [Example I-190]
  IC50: 10 to 100 µM

## CN(C)C(=O)c1cc2cc(C3=CCCN(C(=O)CCn4ccnn4)C3)cc(N3CCNCC3)c2o1 [Example I-191]
  IC50: > 100 µM

## CN(C)C(=O)c1nc2cc(C3=CCCN(C(=O)CCn4ccnn4)C3)ccc2s1 [Example I-192]
  IC50: > 100 µM

## CC(=O)N1CCc2ccc(CC(=O)N3CCC=C(c4ccc5oc(C(=O)N(C)C)cc5c4)C3)cc2C1 [Example I-193]
  IC50: > 100 µM

## CN(C)C(=O)c1cc2ncc(C3=CCCN(C(=O)CCn4ccnn4)C3)cc2[nH]1 [Example I-194]
  IC50: > 100 µM

## CN(C)C(=O)c1cc2ccc(C3=CCCN(C(=O)CCn4ccnn4)C3)nc2[nH]1 [Example I-196]
  IC50: 10 to 100 µM

## CN(C)C(=O)c1nc2ccc(C3=CCCN(C(=O)C4Cc5ccccc5CN4C=O)C3)cc2[nH]1 (stereo not shown) [Example I-198]
  IC50: > 100 µM

## CN(C)C(=O)c1nc2cc(C3=CCCN(C(=O)CCc4ccccn4)C3)ccc2[nH]1 [Example I-199]
  IC50: > 100 µM

## CN(C)C(=O)c1cc2cc(C3=CCCN(C(=O)CCc4ccccn4)C3)ccc2[nH]1 [Example I-200]
  IC50: > 100 µM

## CN(C)C(=O)c1cc2cc(C3=CCCN(C(=O)C4Cc5ccccc5CN4C=O)C3)ccc2[nH]1 (stereo not shown) [Example I-201]
  IC50: > 100 µM

## CN(C)C(=O)c1cc2ccc(C3=CCCN(C(=O)C4Cc5ccccc5CN4C=O)C3)cc2[nH]1 (stereo not shown) [Example I-202]
  IC50: 0.1 to 1 µM

## CNCc1cc(C2=CCCN(C(=O)CCn3ccnn3)C2)cc2cc(C(=O)N(C)C)oc12 [Example I-203]
  IC50: 10 to 100 µM

## CNc1ccc(-c2cc(C3=CCCN(C(=O)CCn4ccnn4)C3)cc3cc(C(=O)N(C)C)oc23)cc1 [Example I-204]
  IC50: > 100 µM

## CN(C)C(=O)c1cc2cc(C3=CCCN(C(=O)CCn4ccnn4)C3)cc(-c3ccc(O)cc3)c2o1 [Example I-205]
  IC50: 0.1 to 1 µM

## CN(C)C(=O)c1cc2cc(C3=CCCN(C(=O)CCc4nccc5ccccc45)C3)ccc2o1 [Example I-206]
  IC50: > 100 µM

## CC(=O)N1CCN(c2cc(C3=CCCN(C(=O)CCn4ccnn4)C3)cc3cc(C(=O)N(C)C)oc23)CC1 [Example I-207]
  IC50: > 100 µM

## CN(C)C(=O)c1cc2cc(C3=CCCN(C(=O)C4c5ccccc5CCN4C)C3)ccc2o1 (stereo not shown) [Example I-208]
  IC50: > 100 µM

## CN(C)C(=O)c1cc2ccc(C3=CCCN(C(=O)CCc4ccccn4)C3)cc2[nH]1 [Example I-212]
  IC50: 10 to 100 µM

## NC(=O)c1cc2cc(C3=CCCN(C(=O)CCn4ccnn4)C3)ccc2o1 [Example I-213]
  IC50: > 100 µM

## CN(C)C(=O)c1nc2cc(C3=CCCN(C(=O)CCn4ccnn4)C3)ccc2o1 [Example I-214]
  IC50: > 100 µM

## CN(C)C(=O)c1cc2cc(C3=CCCN(C(=O)CCn4ccnn4)C3)cc(C3CCNCC3)c2o1 [Example I-215]
  IC50: 10 to 100 µM

## CN(C)C(=O)c1cc2cc(C3=CCCN(C(=O)CCc4cnccn4)C3)ccc2o1 [Example I-216]
  IC50: > 100 µM

## CN(C)C(=O)c1cc2cc(C3=CCCN(C(=O)CCn4nnc5ccccc54)C3)ccc2o1 [Example I-217]
  IC50: > 100 µM

## CC(=O)NCc1ccccc1-c1ccccc1CC(=O)N1CCC=C(c2ccc3oc(C(=O)N(C)C)cc3c2)C1 [Example I-219]
  IC50: > 100 µM

## CN(C)C(=O)c1cc2cc(C3=CCCN(C(=O)CCc4cccnn4)C3)ccc2o1 [Example I-220]
  IC50: > 100 µM

## CN(C)C(=O)c1cc2cc(C3=CCCN(C(=O)Cc4nc5ccccc5s4)C3)ccc2o1 [Example I-221]
  IC50: > 100 µM

## CN(C)C(=O)c1cc2cc(C3=CCCN(C(=O)CCn4ccnn4)C3)cnc2[nH]1 [Example I-222]
  IC50: 10 to 100 µM

## CN(C)C(=O)c1cc2cc(C3=CCCN(C(=O)CCn4ccnn4)C3)ncc2[nH]1 [Example I-224]
  IC50: 10 to 100 µM

## CN(C)C(=O)c1cc2cc(C3=CCCN(C(=O)CCc4ccnnc4)C3)ccc2o1 [Example I-225]
  IC50: > 100 µM

## CN(C)C(=O)c1nc2ccc(C3=CCCN(C(=O)CCn4ccnn4)C3)cc2o1 [Example I-226]
  IC50: > 100 µM

## CN(C)C(=O)c1nc2ccc(C3=CCCN(C(=O)CCn4ccnn4)C3)cc2s1 [Example I-227]
  IC50: 10 to 100 µM

## CN(C)C(=O)c1cc2cc(C3=CCCN(C(=O)CCc4ncccn4)C3)ccc2o1 [Example I-231]
  IC50: > 100 µM

## CC(=O)N1Cc2ccccc2CC1C(=O)N1CCC=C(c2ccc3oc(C(=O)N(C)C)cc3c2)C1 (stereo not shown) [Example I-232]
  IC50: > 100 µM

## CN(C)C(=O)c1nc2cc(C3=CCCN(C(=O)CCn4ccnn4)C3)ccc2[nH]1 [Example I-234]
  IC50: > 100 µM

## CCCN(C)C(=O)c1cc2cc(C3=CCCN(C(=O)CCn4ccnn4)C3)ccc2o1 [Example I-235]
  IC50: > 100 µM

## CNC(=O)c1cc2cc(C3=CCCN(C(=O)CCn4ccnn4)C3)ccc2o1 [Example I-236]
  IC50: > 100 µM

## CN(C)C(=O)c1cc2cc(C3=CCCN(C(=O)CCc4nc5ccccc5s4)C3)ccc2o1 [Example I-237]
  IC50: > 100 µM

## CN(C)C(=O)c1cc2cc(C3=CCCN(C(=O)[C@H]4Cc5ccc(O)cc5CN4)C3)ccc2o1 [Example I-239]
  IC50: > 100 µM

## CN(C)C(=O)c1cn2cc(C3=CCCN(C(=O)CCn4ccnn4)C3)ccc2n1 [Example I-241]
  IC50: > 100 µM

## CN(C)C(=O)c1cc2cc(C3=CCCN(C(=O)CCn4ccnn4)C3)ccc2s1 [Example I-243]
  IC50: > 100 µM

## CN(C)C(=O)c1cc2cc(C3=CCCN(C(=O)CCn4ccnn4)C3)cnc2s1 [Example I-244]
  IC50: > 100 µM

## CN(C)C(=O)c1cc2cc(C3=CCCN(C(=O)Cc4nc5ccccc5[nH]4)C3)ccc2o1 [Example I-245]
  IC50: > 100 µM

## CN(C)C(=O)c1cc2cc(C3=CCCN(C(=O)Cc4cnccn4)C3)ccc2o1 [Example I-246]
  IC50: > 100 µM

## CN(C)C(=O)c1cc2cc(C3=CCCN(C(=O)Cc4ncccn4)C3)ccc2o1 [Example I-249]
  IC50: > 100 µM

## CN(C)C(=O)c1cc2cc(C3=CCCN(C(=O)CCc4cn5ccccc5n4)C3)ccc2o1 [Example I-251]
  IC50: > 100 µM
